Data reported in ChEMBL document CHEMBL1201862, “PubChem BioAssay data set” (2004).
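How tested: cells in 96-well plates exposed to compound for 48 hours at five concentrations. At the GI50, growth is halved.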 The source made the active and inactive calls. Cut-off read from the data, not from the text of the source: active = GI50 up to about 1.1 µM and inactive = higher.

How the values were obtained:
Experiment in all cases: DTP human tumour cell line panel, 48 h
UO-31 = tested on: UO-31
HOP-62 = tested on: HOP-62
LOX IMVI = tested on: LOX IMVI
TK-10 = tested on: TK-10
NCI-H460 = tested on: NCI-H460
RXF 393 = tested on: RXF 393
OVCAR-4 = tested on: OVCAR-4
Malme-3M = tested on: Malme-3M
HL-60 = tested on: HL-60
HOP-92 = tested on: HOP-92
UACC-257 = tested on: UACC-257
SF-268 = tested on: SF-268
CCRF-CEM = tested on: CCRF-CEM
SF-539 = tested on: SF-539
MDA-MB-231 = tested on: MDA-MB-231
A498 = tested on: A498
RPMI-8226 = tested on: RPMI-8226
Hs-578T = tested on: Hs-578T
SR = tested on: SR

Measured: GI50

COC(=O)CNC(=O)CSc1nnc(COc2ccc(Cl)cc2)n1-c1ccccc1
inactive: UO-31 27.4 µM | HOP-62 > 100 µM | LOX IMVI 31.3 µM | TK-10 22 µM | NCI-H460 56.8 µM | RXF 393 23.1 µM | OVCAR-4 > 100 µM | Malme-3M 41.3 µM | HL-60 30.1 µM | HOP-92 31.8 µM | UACC-257 29.9 µM | SF-268 22.2 µM | CCRF-CEM 57.4 µM | SF-539 > 100 µM | MDA-MB-231 20.5 µM | A498 > 100 µM

CCN1C(=O)C(=C/C=C/c2ccc(N(CC)CC)cc2)C(=O)N(CC)C1=S
inactive: UO-31 > 100 µM | HOP-62 21.7 µM | LOX IMVI > 100 µM | TK-10 > 100 µM | RPMI-8226 > 100 µM | NCI-H460 > 100 µM | RXF 393 > 100 µM | OVCAR-4 > 100 µM | HL-60 23.6 µM | HOP-92 > 100 µM | UACC-257 > 100 µM | SF-268 > 100 µM | CCRF-CEM 32.4 µM | SF-539 72.1 µM | Hs-578T > 100 µM | MDA-MB-231 > 100 µM

COc1c(CC=C(C)C)c(O)c(C(CC(C)C)c2c(O)c(C(C)=O)c(O)c3c2OC(C(C)(C)O)C3)c(O)c1C(C)=O (stereo not given) [ACROFOLIONE A]
inactive: UO-31 4.16 µM | LOX IMVI 4.38 µM | NCI-H460 4.13 µM | RXF 393 2.88 µM | OVCAR-4 5.68 µM | SR 2.82 µM | Malme-3M 3.81 µM | HL-60 1.97 µM | HOP-92 1.85 µM | UACC-257 3.2 µM | SF-268 5.33 µM | CCRF-CEM 5.36 µM | SF-539 4.93 µM | Hs-578T 7.74 µM | A498 3.83 µM

CC(C)(C)OC(=O)CC(NC(=O)OC(C)(C)C)C(=O)Oc1ccc([N+](=O)[O-])cc1 (stereo not given)
inactive: UO-31 > 100 µM | HOP-62 > 100 µM | LOX IMVI > 100 µM | TK-10 > 100 µM | RPMI-8226 > 100 µM | NCI-H460 > 100 µM | RXF 393 > 100 µM | OVCAR-4 > 100 µM | Malme-3M > 100 µM | HOP-92 > 100 µM | UACC-257 > 100 µM | SF-268 3.2 µM | CCRF-CEM > 100 µM | SF-539 > 100 µM | Hs-578T > 100 µM | MDA-MB-231 > 100 µM | A498 > 100 µM

O=c1c(-c2ccccc2)c(SCCN2CCCC2)n(-c2ccccc2)c(=S)n1-c1ccccc1
inactive: HOP-62 > 100 µM | LOX IMVI > 100 µM | TK-10 > 100 µM | RPMI-8226 > 100 µM | NCI-H460 > 100 µM | RXF 393 > 100 µM | OVCAR-4 > 100 µM | Malme-3M > 100 µM | HL-60 > 100 µM | HOP-92 71.9 µM | UACC-257 > 100 µM | SF-268 > 100 µM | CCRF-CEM > 100 µM | SF-539 > 100 µM | Hs-578T > 100 µM | MDA-MB-231 > 100 µM | A498 > 100 µM

COc1cc(C2c3cccc4cccc(c34)C3CCC(=O)N32)cc(O)c1O (stereo not given)
inactive: UO-31 28.8 µM | HOP-62 47.1 µM | RPMI-8226 11.5 µM | NCI-H460 36.5 µM | RXF 393 > 50 µM | OVCAR-4 12.7 µM | SR 9.71 µM | HL-60 14.6 µM | HOP-92 > 50 µM | UACC-257 24.7 µM | CCRF-CEM 10.9 µM | SF-539 20.9 µM | A498 > 50 µM

CCOC(=O)c1ccc(-n2c(SCC)nc3sc(C)c(C)c3c2=O)cc1
inactive: UO-31 > 100 µM | HOP-62 > 100 µM | LOX IMVI > 100 µM | TK-10 > 100 µM | RPMI-8226 > 100 µM | NCI-H460 > 100 µM | RXF 393 94.8 µM | OVCAR-4 53.8 µM | SR > 100 µM | Malme-3M > 100 µM | HL-60 > 100 µM | HOP-92 50.7 µM | UACC-257 > 100 µM | SF-268 > 100 µM | CCRF-CEM > 100 µM | SF-539 > 100 µM | A498 25.2 µM

CCc1c(CN)c(CC)c(CNC2=NCCN2)c(CC)c1CNC1=NCCN1
inactive: UO-31 > 100 µM | HOP-62 > 100 µM | TK-10 > 100 µM | RPMI-8226 > 100 µM | NCI-H460 > 100 µM | RXF 393 > 100 µM | OVCAR-4 > 100 µM | SR > 100 µM | Malme-3M > 100 µM | HOP-92 > 100 µM | UACC-257 > 100 µM | SF-268 > 100 µM | CCRF-CEM > 100 µM | SF-539 > 100 µM | Hs-578T > 100 µM | A498 > 100 µM

CC(=O)NCCCCNCCCNC(C)=O
inactive: UO-31 > 100 µM | LOX IMVI > 100 µM | TK-10 > 100 µM | RPMI-8226 > 100 µM | NCI-H460 > 100 µM | RXF 393 > 100 µM | OVCAR-4 > 100 µM | Malme-3M > 100 µM | HL-60 > 100 µM | HOP-92 > 100 µM | UACC-257 > 100 µM | SF-268 > 100 µM | CCRF-CEM > 100 µM | SF-539 > 100 µM | Hs-578T > 100 µM | MDA-MB-231 > 100 µM | A498 > 100 µM

CC(=O)Nc1ccccc1NC1CC(C)N(c2ccccc2)N1C(C)=O (stereo not given)
inactive: HOP-62 > 10 µM | TK-10 > 10 µM | RPMI-8226 > 10 µM | RXF 393 > 10 µM | OVCAR-4 > 10 µM | SR > 10 µM | Malme-3M > 10 µM | HL-60 > 10 µM | HOP-92 > 10 µM | UACC-257 > 10 µM | SF-268 > 10 µM | CCRF-CEM > 10 µM | MDA-MB-231 > 10 µM

CN(Cc1cnc2nc(N)nc(N)c2n1)c1ccc(C(=O)NCS(=O)(=O)O)cc1
inactive: UO-31 > 100 µM | HOP-62 > 100 µM | LOX IMVI 90.4 µM | TK-10 > 100 µM | RPMI-8226 > 100 µM | NCI-H460 92.7 µM | OVCAR-4 > 100 µM | Malme-3M > 100 µM | HOP-92 1.34 µM | UACC-257 > 100 µM | SF-268 33.3 µM | SF-539 85.7 µM | Hs-578T > 100 µM | MDA-MB-231 > 100 µM | A498 > 100 µM

CN1CC2CC(C1)c1cccc(=O)n1C2 (stereo not given)
inactive: UO-31 > 100 µM | HOP-62 > 100 µM | LOX IMVI > 100 µM | TK-10 > 100 µM | NCI-H460 > 100 µM | RXF 393 > 100 µM | OVCAR-4 > 100 µM | Malme-3M > 100 µM | HOP-92 > 100 µM | UACC-257 > 100 µM | SF-268 > 100 µM | Hs-578T > 100 µM | MDA-MB-231 > 100 µM
